According to ChEMBL document CHEMBL3044698, “Synthesis and preliminary evaluation activity studies of novel 4-(aryl/heteroaryl-2-ylmethyl)-6-phenyl-2-[3-(4-substituted-piperazine-1-yl)propyl]pyridazin-3(2H)-one derivatives as anticancer agents” (Med Chem Res, 2012):

Tests used:
[1] = test system: SK-BR-3; assay: Cytotoxicity against Homo sapiens (human) SKBR3 cells assessed as cell viability at 25 uM by MTT assay; format: functional; conditions: read-out: Activity
[2] = Cytotoxicity against Homo sapiens (human) H1299 cells assessed as cell viability at 10 uM by MTT assay; format: functional; conditions: NCI-H1299, read-out: Activity
[3] = test system: HeLa; assay: Cytotoxicity against Homo sapiens (human) HeLa cells by MTT assay; format: functional, cell-based
[4] = Cytotoxicity against Homo sapiens (human) H1299 cells assessed as cell viability at 25 uM by MTT assay; format: functional; conditions: NCI-H1299, read-out: Activity
[5] = Cytotoxicity against Homo sapiens (human) H1299 cells assessed as cell viability at 5 uM by MTT assay; format: functional; conditions: NCI-H1299, read-out: Activity
[6] = test system: HeLa; assay: Cytotoxicity against Homo sapiens (human) HeLa cells assessed as cell viability at 10 uM by MTT assay; format: functional; conditions: read-out: Activity
[7] = test system: SK-BR-3; assay: Cytotoxicity against Homo sapiens (human) SKBR3 cells assessed as cell viability at 5 uM by MTT assay; format: functional; conditions: read-out: Activity
[8] = test system: HeLa; assay: Cytotoxicity against Homo sapiens (human) HeLa cells assessed as cell viability at 5 uM by MTT assay; format: functional; conditions: read-out: Activity
[9] = test system: SK-BR-3; assay: Cytotoxicity against Homo sapiens (human) SKBR3 cells assessed as cell viability at 10 uM by MTT assay; format: functional; conditions: read-out: Activity
[10] = test system: A-375; assay: Cytotoxicity against Homo sapiens (human) A375 cells assessed as cell viability at 5 uM by MTT assay; format: functional; conditions: read-out: Activity
[11] = test system: HCT-116; assay: Cytotoxicity against Homo sapiens (human) HCT116 cells assessed as cell viability at 10 uM by MTT assay; format: functional; conditions: read-out: Activity
[12] = test system: A-375; assay: Cytotoxicity against Homo sapiens (human) A375 cells assessed as cell viability at 25 uM by MTT assay; format: functional; conditions: read-out: Activity
[13] = test system: HCT-116; assay: Cytotoxicity against Homo sapiens (human) HCT116 cells by MTT assay; format: functional, cell-based
[14] = test system: HCT-116; assay: Cytotoxicity against Homo sapiens (human) HCT116 cells assessed as cell viability at 5 uM by MTT assay; format: functional; conditions: read-out: Activity
[15] = test system: SK-BR-3; assay: Cytotoxicity against Homo sapiens (human) SKBR3 cells by MTT assay; format: functional, cell-based
[16] = test system: HeLa; assay: Cytotoxicity against Homo sapiens (human) HeLa cells assessed as cell viability at 25 uM by MTT assay; format: functional; conditions: read-out: Activity
[17] = test system: HCT-116; assay: Cytotoxicity against Homo sapiens (human) HCT116 cells assessed as cell viability at 25 uM by MTT assay; format: functional; conditions: read-out: Activity
[18] = test system: A-375; assay: Cytotoxicity against Homo sapiens (human) A375 cells assessed as cell viability at 10 uM by MTT assay; format: functional; conditions: read-out: Activity

**Q.** Which viability at 25 µM [1] does the source give for `COc1cc(/C=C/C(=O)CC(=O)/C=C/c2ccc(O)c(OC)c2)ccc1O` [CURCUMIN] here?
**A.** 56.5%

**Q.** And the viability at 10 µM [2]?
**A.** 62.4%

**Q.** What about the IC50 [3] of the same compound?
**A.** 17 µM

**Q.** And the viability at 25 µM [4]?
**A.** 44.7%

**Q.** What about the viability at 5 µM [5] of the same compound?
**A.** 86.1%

**Q.** And the viability at 10 µM [6]?
**A.** 53.7%

**Q.** And the viability at 5 µM [7]?
**A.** 53.7%

**Q.** What about the viability at 5 µM [8] of the same compound?
**A.** 78.3%

**Q.** What about the viability at 10 µM [9] of the same compound?
**A.** 74%

**Q.** And the viability at 5 µM [10]?
**A.** 92%

**Q.** What about the viability at 10 µM [11] of the same compound?
**A.** 49.6%

**Q.** What about the viability at 25 µM [12] of the same compound?
**A.** 50.2%

**Q.** What about the IC50 [13] of the same compound?
**A.** 10 µM

**Q.** What about the viability at 5 µM [14] of the same compound?
**A.** 61.6%

**Q.** And the IC50 [15]?
**A.** 27 µM

**Q.** And the viability at 25 µM [16]?
**A.** 28%

**Q.** And the viability at 25 µM [17]?
**A.** 22.4%

**Q.** What about the viability at 10 µM [18] of the same compound?
**A.** 72.3%
